The values that follow come from PMC1838525 (Protein science : a publication of the Protein Society, 2006).

In this assay the target is T1, Vam7p PX domain (Saccharomyces cerevisiae, UniProt P32912).
T1 sequence (P32912 2-122): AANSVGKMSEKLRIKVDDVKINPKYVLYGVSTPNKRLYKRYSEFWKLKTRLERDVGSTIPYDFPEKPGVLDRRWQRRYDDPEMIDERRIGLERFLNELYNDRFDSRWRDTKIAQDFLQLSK
Briefly: 1H, […] HSQC NMR titration. In kind it is binding.

For the compound `CCCC(=O)OC[C@H](COP(=O)(O)O[C@@H]1[C@H](O)[C@H](OP(=O)(O)O)[C@@H](O)[C@H](O)[C@H]1O)OC(=O)CCC` [C4-PtdIns(3)P], the affinity, expressed as Kd, was 299 ± 26 µM.
